Test results: patent US12629336B2, “Compositions and methods of use thereof for treatment of mastitis” (CureMast, Inc., priority 2020, dated 2026)
Where “and” joins values, the source holds several entries; their conditions need not be identical. Equal entries are not always repeated. Where two headings read alike, the source gives them in different places.

Legend:
epithelial cells = details: in vitro, cited from earlier work
bacteria = details: in vitro; value in brackets; cited from earlier work
[1] = paper chromatography: migration/release of NAC from monoolein emulsions; assay type: physicochemical; details: deionized water as solvent, tetrazolium/ammonia detection
Description: Paper chromatography was utilized to evaluate the release of soluble NAC from the formulations of Examples 1 and 2 using a colorimetric reagent to develop the chromatograms as follows:
Three strips of chromatography paper were marked with pencil to indicate the “origin” and spotted with a small dot of each of the two samples. The third strip was spotted with a drop of aqueous NAC only. Each strip was suspended in a separate jar with deionized water just covering the bottom of the jar. The bottom edge of each paper strip was positioned to be immersed in water, which gradually migrated up the strip. After upward water migration wet approximately 6 to 8 cm of the paper, the “solvent front” was marked with pencil and the strips were allowed to dry completely.
Tetrazolium blue chloride (Sigma no. T4375, lot no. SHBM0991) was dissolved in denatured ethyl alcohol to obtain a 1% solution and transferred to a small spray bottle. The dry chromatography strips were placed in a chemical fume hood, sprayed with the tetrazolium solution, and allowed to dry again. An ammonia chamber was created by coving the bottom of a large glass canister with concentrated ammonium hydroxide and the chromatography paper strips were suspended just above the liquid with the canister covered until a purple color developed, indicating the presence of NAC.

| Compound | cytotoxic limit (CTL) above which epithelial cells are killed (epithelial cells) | cytotoxic limit (CTL) above which epithelial cells are killed (epithelial cells; value in brackets) | minimum inhibitory concentration (MIC) required to kill bacteria (bacteria) | Rf value of NAC [1] | migration of NAC from the origin [1] |
| --- | --- | --- | --- | --- | --- |
| polyhexamethylene biguanide hydrochloride [PHMB] | greater than 15 mg per liter | > 0.15% | 0.01% | – | – |
| CC(=O)N[C@@H](CS)C(=O)O [aqueous NAC, N-acetyl-L-cysteine] | – | – | – | 0.91 and 0.67 | migrated from the origin |
